According to patent publication US11884649B2, “IRE1α inhibitors and uses thereof” (The Regents of the University of California, priority 2020, dated 2024):

Columns and labels:
IRE1α* = biological target: T1, IRE1α* (Homo sapiens, UniProt O75460); experiment: In vitro RNase activity assay, XBP1-mini substrate cleavage, inhibitor titrations; format: biochemical; conditions: relative to apo IRE1α*
T1 construct: human IRE1α (residues 547-977, IRE1α*) was expressed in SF9 insect cells; His6 (N); made in house; host or cells: Sf9 insect cells (Bac-to-Bac baculovirus)
T1 sequence (O75460 547-977): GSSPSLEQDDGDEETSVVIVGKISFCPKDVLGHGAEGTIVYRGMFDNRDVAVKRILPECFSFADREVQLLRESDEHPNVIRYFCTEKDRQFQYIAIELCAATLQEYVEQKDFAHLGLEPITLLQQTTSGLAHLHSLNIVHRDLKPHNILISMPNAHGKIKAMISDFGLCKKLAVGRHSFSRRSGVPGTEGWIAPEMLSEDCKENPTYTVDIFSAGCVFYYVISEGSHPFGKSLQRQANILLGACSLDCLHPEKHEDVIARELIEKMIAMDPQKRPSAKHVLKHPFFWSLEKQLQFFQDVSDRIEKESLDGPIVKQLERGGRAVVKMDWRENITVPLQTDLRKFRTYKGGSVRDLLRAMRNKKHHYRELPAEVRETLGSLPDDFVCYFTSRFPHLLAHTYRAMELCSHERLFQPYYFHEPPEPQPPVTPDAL
Protocol: In Vitro RNase Activity Assay Inhibitor Titrations
50 nM IRE1α* was incubated with inhibitor (initial concentration of 10 or 60 μM, three-fold serial dilutions) or DMSO for 30 min in assay buffer (20 mM Tris, 50 mM NaCl, 1 mM MgCl2, 2 mM DTT, 0.05% Triton X-100 (v/v), pH 7.5). Assays were initiated by adding 10 μL of XBP1-mini substrate (5′-Alex647-CAUGUCCGCAGCGCAUG-IowaBlack-FQ-3′ (SEQ ID NO: 1); IDT) to the wells at a final concentration of 200 nM and a final well volume of 30 μL. Fluorescence was detected on a Perkin Elmer Envision Microplate Reader at excitation and emission wavelengths of 650 nm and 665 nm. Dose-response curves were fit using “one-site fit log IC50” parameter using GraphPad Prism analysis software.

XBP1 mRNA splicing = experiment: XBP1 splicing in human islets subjected to ER stress; format: cell-based; conditions: DTT, 20 μM compound
Protocol: INS-1 or isogenic IRE1α-overexpressing INS-1 cells were plated onto Poly-D-Lysine coated tissue culture plate and grown for 48 hrs. Inhibitors or DMSO were added to the media and incubated for 1 hour at 37° C. with 5% CO2 prior to addition of ER stress agents or Dox as indicated. RNA was isolated from whole cells using either QIAGEN RNeasy Mini kits or Trizol (Invitrogen) and reverse transcribed as above to obtain total cDNA. Then, XBP-1 primers were used to amplify an XBP-1 amplicon spanning the 26 nt intron from the cDNA samples in a regular 3-step PCR. Thermal cycles were: 5 min at 95° C., 30 cycles of 30 s at 95° C., 30 s at 60° C., and 1 min at 72° C., followed by 72° C. for 15 min, and hold at 4° C. Primers used for XBP-1 mRNA splicing were as follows: sense primer XBP1.3 S (5′ […]-3′ (SEQ ID NO:2)) and antisense primer XBP1.2AS (5′-[…]-3′ (SEQ ID NO:3)). PCR fragments were then digested by PstI, resolved on 3% agarose gels, stained with EtBr and quantified by densitometry using ImageJ (NIH). For standard mRNA detection, generally […] total RNA was reverse transcribed using the QuantiTect Reverse Transcription Kit (QIAGEN). […]
Non-diabetic human islets were obtained and cultured in supplemented Prodo Islet Medium (PIM(S) from Prodo Labs). […] Collected media were analyzed by anti-insulin ELISA (EMD Millipore) and insulin levels were normalized to total protein amount.

O=S(=O)(CC(F)(F)F)Nc1ccc(Oc2ncccc2-c2ccnc(N[C@H]3CCCNC3)n2)c2ccccc12 (stereo in doubt) [PAIR1, 2,2,2-trifluoro-N-(4-(3-(2-(piperidin-3-ylamino)pyrimidin-4-yl)pyridin-2-yloxy)naphthalen-1-yl)ethanesulfonamide]
RNase activity of IRE1α* (in words) (IRE1α*): partially inhibit
XBP1 mRNA splicing (XBP1 mRNA splicing): only weakly inhibited
